Experimental data as given in US20090233917A1, “Stroke recovery” (priority 2006, published 2009).
Entries after “also recorded” stand apart in the source; their conditions may differ.

How the values were obtained:
healthy human volunteers = test: Pharmacokinetic clinical study in healthy human volunteers; assay type: in vivo
Procedure: Seven healthy human volunteers were administered orally 400 mg t.i.d. dosing (1200 mg/day) in a double-blinded and placebo controlled clinical study.

MCA occlusion in rats = test: Functional recovery following MCA occlusion in rats, dose study (Examples 2, 3, 6); assay type: in vivo, Sprague Dawley Rats
Procedure: Fifty male Sprague Dawley Rats, each weighing 300-400 g, are operated under anesthesia to create MCA occlusion as described in Example 1, and are divided into 5 groups of 10 animals each. Each group is given arimocolomol, p.o., starting at one day after the occlusion at 25 mg/kg/d, 50 mg/kg/d, 100 mg/kg/d, or 200 mg/kg/d once daily for 35 days. One group is a control group with administration of the vehicle only.
Animals are evaluated pre-operation (day −1), then every 7 days after the operation (7, 14, 21, 28, and 35) by forelimb and hindlimb placing tests and body swing test, and given scores as described in Example 1.
On day 35 after MCAO, rats in the control group and the group with the highest dosage were sacrificed and their brains evaluated as in Example 1. The rats in other groups are sacrificed and the brains were removed and flash frozen for further analysis.

[1] = system: permanent middle cerebral artery occlusion (MCAO) in rats; test: Functional recovery following permanent MCAO in rats (Example 1); assay type: in vivo, Sprague Dawley Rats
Excerpt: The purpose of this study was to evaluate the efficacy of arimoclomol and iroxanadine in enhancing neurological recovery in a model of permanent middle cerebral artery occlusion (MCAO) in rats. The permanent MCAO is a well accepted and considered to be a standard animal model for studying clinical aspects of stroke. (Stroke. 1999; 30:2752-2758.)
Forty male Sprague Dawley Rats, each weighing 300-400 g, which had been housed and handled for behavioral assessment for seven (7) days prior to surgery for acclimation purposes, were operated under anesthesia to create focal cerebral infarcts by permanent occlusion of the proximal right middle cerebral artery (MCA) according to modified Tamura model. Briefly, the rats were anesthetized with 2-3% halothane in the mixture of N2O:O2 (2:1), and were maintained with 1˜1.5% halothane in the mixture of N2O:O2 (2:1). The temporalis muscle was bisected and reflected through an incision made midway between the eye and the eardrum canal. The proximal MCA was exposed through a subtemporal craniectomy without removing the zygomatic arch and without transecting the facial nerve. […] Body temperature was maintained at 37.5° C.±0.5° C. throughout the entire procedure. Cefazolin (40 mg/kg; Baxter, Lot 06014.1, Exp. January 2009) was given i.p. one day before MCAO and just after MCAO to prevent infections.
The rats were randomly divided into 4 groups of 10 animals each. One group was given arimoclomol, p.o., starting at one hour after the occlusion at 200 mg/kg/d once daily for 3 days, then 50 mg/kg/d once daily for a total of 29 days. The second group was given iroxanadine using the same dosing regimen as for arimoclomol. The third group is a positive control group and is given intracistemally 1 μg (at 20 μg/ml, also containing 100 μg/ml of bovine serum albumin) beta-fibroblast growth factor (bFGF) one hour and one day (i.e. two administrations) after the occlusion. The fourth group is a negative control with administration of the vehicle only.
Animals were evaluated preoperation (day −1), then every 7 days after the operation (7, 14, 21, and 28 days) by forelimb and hindlimb placing tests and body swing test, which are widely accepted as standard tests indicative of functional recovery after a stroke model.
For the forelimb placing test, the examiner held the rat close to a tabletop and scored the rat's ability to place the forelimb on the tabletop in response to whisker, visual, tactile, or proprioceptive stimulation. Similarly, for the hindlimb placing test, the examiner assessed the rat's ability to place the hindlimb on the tabletop in response to tactile and proprioceptive stimulation. Separate sub-scores were obtained for each mode of sensory input (halfpoint designations possible), and added to give total scores (for the forelimb placing test: 0=normal, 12=maximally impaired; for the hindlimb placing test: 0=normal; 6=maximally impaired).
For the body swing test, the rat was held approximately one inch from the base of its tail. It was then elevated to an inch above a surface of a table. The rat was held in the vertical axis, defined as no more than […] to either the left or the right side. A swing was recorded whenever the rat moved its head out of the vertical axis to either side. The rat must return to the vertical position for the next swing to be counted. Thirty (30) total swings were counted. A normal rat typically has an equal number of swings to either side. Following focal ischemia, the rat tends to swing to the contralateral (left) side.
The behavior was evaluated by giving the score ranging in the parentheses after each test: • Forelimb placing test (0-12), consisting of whisker tactile placing (0-2); visual placing (forward, sideways) (0-4); tactile placing (dorsal, lateral) (0-4); and proprioceptive placing (0-2); • Hindlimb placing test (0-6), consisting of tactile placing (dorsal, lateral) (0-4); and proprioceptive placing (0-2). […]

[2] = treatment from 1 h after occlusion, up to 28 days

[O-][n+]1cccc(/C(Cl)=N/OC[C@H](O)CN2CCCCC2)c1 [arimoclomol, N-[2-hydroxy-3-(1-piperidinyl)propoxy]-pyridine-1-oxide-3-carboximidoyl chloride]
clinical abnormalities or changes (ECGs, vital signs, clinical chemistry, physical examination, body weight) (healthy human volunteers; 400 mg t.i.d. (1200 mg/day) orally): No clinical abnormalities or changes were observed
level of exposure of the 200 mg/kg/day rat PK study in humans (healthy human volunteers; 400 mg t.i.d. orally, AUC and Cmax, FIG. 15): can be safely achieved in human volunteers
behavioral scores compared to vehicle control group (MCA occlusion in rats; 25 mg/kg/day p.o. from one day after occlusion): no significant difference
behavioral scores (forelimb placement, hindlimb placement, body swing tests) (MCA occlusion in rats; 50, 100 and 200 mg/kg/day p.o. from one day after occlusion, 35 days): significant dose related improvement
changes in infarct volume (MCA occlusion in rats; day 35, highest dosage vs control): no changes
changes in body weight (MCA occlusion in rats; dose study, 35 days): no changes
effective doses in the stroke recovery model (MCA occlusion in rats; p.o. once daily): 50 to 200 mg/kg/day
maximum effective dose in the study (MCA occlusion in rats; p.o. once daily): 200 mg/kg/day
Infarct Volume (%) ([1]; day 28 after permanent MCAO, percentage of intact contralateral hemispheric volume, mean ± S.E.M.): 21.6 ± 3.6%
Body Swing Test, recovery compared to vehicle group [1, 2]: superior to the vehicle group; also recorded: non-significant trend of enhanced recovery
Forelimb Placing Test, recovery compared to vehicle group [1, 2]: superior to the vehicle group
Hindlimb Placing Test, recovery compared to vehicle group [1, 2]: superior to the vehicle group
